Measured values from US9504248B2, “Antimicrobial composition” (Rohm and Haas Company, priority 2011, dated 2016).
Converted amounts (≈) assume the structure as drawn.

test system: Escherichia coli (10536 strain); test: 15 second contact suspension kill assay (Example 1 protocol, also Example 3); type: cell-based; details: 15 s contact
Description: The efficacies of antimicrobial agents can be usefully compared by determining the Minimum Biocidal Concentration (MBC). The MBC is defined as the lowest absolute concentration of the particular active that provides complete kill (zero bacterial growth). The differing behaviours of inhibitory antimicrobtals in Isolation and mixtures have been widely explored using the concept of the Fractional Concentration and Fractional Inhibitory Concentration (FIC). See for instance J R W Lambert and R Lambert, J. Appl. Microblol 95, 734 (2003); T. Jadavji. C G Prober and R Cheung. Antimicrobial Agents and Chemotherapy 26, 91 (1984), and WO 2004/006876. These parameters can be defined as follows:
[formula] [formula] By analogy the Fractional Biocidal Concentration (FBC) is given by:
Antimicrobial efficacy is tested against a representative pathogenic bacterial organism, Gram negative Escherichia coli. Concentrations of actives are expressed in terms of the percentage weight/volume (% w/v) throughout Example 1.
An overnight culture of Escherichia coli (10536 strain) was prepared in 50 ml total volume of TSB broth, grown for ca. 18 hrs at 37° C. and shaken at 150 rpm. 1 ml of this overnight E. coli culture was transferred to 50 ml of fresh TSB broth and incubated at 37° C. at 150 rpm for ca. 4 hours. This culture was separated into equal volumes and centrifuged at 4000 rpm for 15 minutes, washed with sterile saline (0.85% NaCl), centrifuged once more and re-suspended in saline to give a final concentration of 0.8 OD620 equivalent to about 10^8 cells per milliliter for this particular organism. Here, OD620 indicates the absorbance of a sample in a cuvette of 1.0 cm path length at a wavelength of 620 nm. This bacterial stock was used for assaying against antimicrobial actives (in triplicate).
The following assay describes the testing of 8 materials using 6 dilutions across half of a 96-well micro titre plate (MTP). Using this approach it is possible to assay 16 actives (without replicates) with one full dilution plate, replicating this set up in two halves of the plate columns, 1-6 and 7-12.
1M solutions of the test actives were prepared in dimethylsulphoxide (DMSO).
Aliquots (270 μl) of the materials at 1.11 times the final concentration were dispensed into the wells of the MTP along one column (A1-H1). This MTP was labelled as the “Screening plate”.
In another MTP, labelled as the “Dilution plate”, 270 μl of D/E neutralising solution from DIFCO Composition was added to column 1. The composition of the neutralising solution was as follows: pancreatic digest of casein, 5.0 g/L; Yeast Extract, 2.5 g/L; Dextrose, 10 g/L, sodium thioglycollate, 1.0 g/L, sodium thiosulphate, 6.0 g/L; sodium bisulphite, 2.5 g/L; Polysorbate 80, 5.0 g/L; lecithin 7.0 g/L; bromocresol purple, 0.02 g/L with a pH in the range 7.6±0.2.
270 μl of tryptone diluent solution was added to all the remaining wells of the Dilution MTP (columns 2-6).
Bacterial stock (30 μl) was then added to the prepared 270 μl of the solution of actives in the Screening Plate and mixed, using a multichannel pipette with 8 tips to aspirate and dispense the same volume of bacterial stock in parallel to 8 wells in rows A-H. After a contact time of 15 seconds, the mixtures were quenched by transferring 30 μl volumes of the mixtures into the 270 μl D/E neutralising solution in the prepared dilution plate, using aspiration to mix. After exactly 5 minutes in the DIE neutralising solution, 30 μl volumes were transferred from column 1 to column 2 of the Dilution MTP and mixed, before transferring further 30 μl volumes from column 2 into column 3. This process was repeated serially diluting the bacteria across the plate to column 6.
30 μl volumes from each well in the Dilution MTP were transferred onto pre-labelled segment of Tryptone Soya Agar (TSA) plates starting from the lowest bacterial concentration (highest dilution, column 6) to the highest bacterial concentration (column 1).

SMILES	bacterial kill (in words)
Cc1ccc(C(C)C)c(O)c1 [A, thymol, reference compound]	not showing bacterial kill
CC1=CCC(C(C)(C)O)CC1 (stereo not drawn) [B, alpha-terpineol, reference compound]	not showing bacterial kill

same assay, conditions: 15 s contact; active concentrations (% w/v) as defined per example; 0 = complete kill; mean of triplicate

SMILES	NMBS, mean bacterial survival
CC1=CCC(C(C)(C)O)CC1 (stereo not drawn) [1:4, alpha-terpineol]	0 log CFU/ml
CC1=CCC(C(C)(C)O)CC1 (stereo not drawn) [1:5, alpha-terpineol]	0 log CFU/ml
CC1=CCC(C(C)(C)O)CC1 (stereo not drawn) [1:6, alpha-terpineol]	7 log CFU/ml
CC1=CCC(C(C)(C)O)CC1 (stereo not drawn) [1:7, alpha-terpineol]	7 log CFU/ml
CCCc1ccc(O)cc1 [1:8, 4-n-propylphenol]	0 log CFU/ml
CCCc1ccc(O)cc1 [1:9, 4-n-propylphenol]	7.8 log CFU/ml
CCCCc1ccc(O)cc1 [1:12, 4-n-butylphenol]	0 log CFU/ml
CCCCc1ccc(O)cc1 [1:13, 4-butylphenol]	7.0 log CFU/ml
CCCCCc1ccc(O)cc1 [1:15, 4-n-pentylphenol]	0 log CFU/ml
CCCCCc1ccc(O)cc1 [1:16, 4-pentylphenol]	6.6 log CFU/ml
CC(C)(C)c1ccccc1O [1:18, 2-tert-butylphenol]	0 log CFU/ml
CC(C)(C)c1ccccc1O [1:19, 2-tert-butylphenol]	7.5 log CFU/ml
CC(C)(C)c1cccc(O)c1 [1:21, 3-tert-butylphenol]	0 log CFU/ml
CC(C)(C)c1cccc(O)c1 [1:22, 3-tert-butylphenol]	7.6 log CFU/ml
CCC(C)c1ccccc1O (centres unmarked) [1:24, 2-sec-butylphenol]	0 log CFU/ml
CCC(C)c1ccccc1O (centres unmarked) [1:25, 2-sec-butylphenol]	7.5 log CFU/ml
CCC(C)c1ccc(O)cc1 (centres unmarked) [1:27, 4-sec-butylphenol]	0 log CFU/ml

SMILES	NMBS, mean bacterial survival
CCC(C)c1ccc(O)cc1 (centres unmarked) [1:28, 4-sec-butylphenol]	4.1 log CFU/ml
CCC(C)c1ccc(O)cc1 (centres unmarked) [1:29, 4-sec-butylphenol]	7.6 log CFU/ml
Oc1ccccc1C1CCCC1 [1:31, 2-cyclopentylphenol]	0 log CFU/ml
Oc1ccccc1C1CCCC1 [1:32, 2-cyclopentylphenol]	3.4 log CFU/ml
Oc1ccccc1C1CCCC1 [1:33, 2-cyclopentylphenol]	7.5 log CFU/ml
Oc1ccc(C2CCCC2)cc1 [1:35, 4-cyclopentylphenol]	0 log CFU/ml
Oc1ccc(C2CCCC2)cc1 [1:36, 4-cyclopentylphenol]	7.1 log CFU/ml
C/C=C/c1ccccc1O [1:38, (E)-2-(prop-1-enyl)phenol]	0 log CFU/ml
C/C=C/c1ccccc1O [1:39, (E)-2-(prop-1-enyl)phenol]	6.9 log CFU/ml
Oc1ccccc1Cc1ccccc1 [1:41, 2-benzylphenol]	0 log CFU/ml
Oc1ccccc1Cc1ccccc1 [1:42, 2-benzylphenol]	7.1 log CFU/ml
Oc1ccc(Cc2ccccc2)cc1 [1:44, 4-benzylphenol]	0 log CFU/ml
Oc1ccc(Cc2ccccc2)cc1 [1:45, 4-benzylphenol]	3.8 log CFU/ml
Oc1cccc(-c2ccccc2)c1 [3:1, 3-phenylphenol]	4.3 log CFU/ml
Oc1cccc(-c2ccccc2)c1 [3:2, 3-phenylphenol]	7.4 log CFU/ml
Oc1cccc(-c2ccccc2)c1 [3:3, 3-phenylphenol]	7.7 log CFU/ml

same assay, conditions: Escherichia coli, 15 s, read-out: Minimum biocidal concentration (MBC)

SMILES	MBC
C/C=C/c1ccccc1O [(E)-2-(prop-1-enyl)phenol]	1500 µg/mL (≈ 11.2 mM)

same assay, conditions: Escherichia coli, 15 s, read-out: Minimum biocidal concentration (MBC), component alone; lowest tested concentration giving zero bacterial survival after 15 s; upper boundary

SMILES	MBC
Oc1cccc(-c2ccccc2)c1 [3-phenylphenol]	≥ 1250 µg/mL

same assay, conditions: Escherichia coli, 15 s; component alone; lowest tested concentration giving zero bacterial survival after 15 s; upper boundary; read-out: Minimum biocidal concentration (MBC)

SMILES	MBC
CC(C)(C)c1cccc(O)c1 [3-tert-butylphenol]	800 µg/mL (≈ 5.33 mM)
CCCCc1ccc(O)cc1 [4-n-butylphenol]	250 µg/mL (≈ 1.66 mM)
CCC(C)c1ccc(O)cc1 (centres unmarked) [4-sec-butylphenol]	800 µg/mL (≈ 5.33 mM)
Cc1ccc(C(C)C)c(O)c1 [Thymol, thymol, reference compound]	500 µg/mL (≈ 3.33 mM)

test system: Escherichia coli (E. coli - ATCC #10536); test: Automated assessment of efficacy in surfactant base, 15 seconds exposure, OD450/OD590 readout (Example 4); type: cell-based; details: cocoyl glycinate and lauroamphoacetate
Method: In these examples, the efficacy of combinations of monosubstituted phenols and terpineol were tested in a surfactant cleansing formulation comprising 2.85% sodium cocoyl glycinate and 1.85% sodium lauroamphoacetate. This corresponds to a 50% in use dilution with water of a typical neat formulation containing 5.7% cocoyl glycinate and 3.7% % sodium lauroamphoacetate during hand washing. Solutions were prepared such that the concentrations of the surfactant components and test actives were 1.1 times the final desired concentration in order to allow for dilution with the bacterial inoculum in the test. The solutions were manually adjusted to pH 10.0 by dropwise addition of sodium hydroxide solution, as measured with a pH meter at ambient temperature. Solutions of the monosubstituted phenols and/or terpineols were prepared at a maximum of 24 hours before testing. The same terpineol was used as in Example 1.
The efficacy of the combinations of the present invention was determined against the same bacterium as in Example 1, Escherichia coli (E. coli—ATCC #10536), at a concentration of approximately 1×10^8 bacteria per mL.
Tests were conducted using standard microtiter plate assays using an automated liquid handling system. 270 μl of the surfactant test solution was pipetted into each well of the microtitre plate (Nunc F Gamma Irradiated 96F untreated microtitre plates of clear polystyrene) and 30 μl of the bacterial suspension was then added. After exactly 15 seconds of bacterial exposure, a 30 μl volume of bacterial cells was withdrawn and transferred to 270 μl of D/E quench solution. After 5 minutes in the D/E quench, the optical density (OD) was measured for each plate in turn at two specific wavelengths (450 nm and 590 nm). These provide a dual check of antimicrobial activity, as the OD450 reading is specific for the yellow colour of D/E quench when bacterial growth is observed, whereas OD590 is specific for the initial purple colour of the D/E quench which is retained if no bacterial growth is observed. After the time zero OD measurements, plates were then incubated at 37° C. overnight (16 hours) before repeating the OD measurements. Delta OD values were calculated by subtracting […] at time=16 hours. Bacterial growth is observed as an increase in OD450 and a decrease in OD590. To identify antibacterially efficacious systems (those preventing appreciable bacterial growth after incubation), the following threshold changes in OD readings have been adopted: if (1). OD450 increases by less than 0.2 absorbance unit (AU) on incubation and (2). OD590 decreases by less than 0.35 AU on incubation. Conversely, where OD450 increases by more than […] after incubation, corresponding to a colour shift from purple to yellow, the test system allows bacterial growth and is not deemed efficacious. Four replicate measurements in the same plate have been made for each test system. The number of replicate wells showing either bacterial growth or no growth is also readily assessed by eye by following the colour change. Thymol and terpineol were tested both alone and in combination for comparison purposes.
In some selected cases, the combinations were also tested at the weight ratio 1:1.
The surfactants used are not themselves antimicrobially active against E. coli at the concentrations employed as shown by the results of Ex. (4:1) in Table 24. Thus, any antimicrobial efficacy can be ascribed to the monosubstituted phenols and/or terpineol. Table 25 presents MBC-values determined similarly as described for Example 1.

SMILES	antimicrobial action in combination with terpineol in the presence of surfactant (in words)
Oc1cccc(-c2ccccc2)c1 [3-phenylphenol]	enhanced antimicrobial action
CC(C)(C)c1cccc(O)c1 [3-tert-butylphenol]	enhanced antimicrobial action
CCCCc1ccc(O)cc1 [4-n-butylphenol]	enhanced antimicrobial action
CCC(C)c1ccc(O)cc1 (centres unmarked) [4-sec-butylphenol]	enhanced antimicrobial action
CC(C)(C)c1ccc(O)cc1 [4-tert-butylphenol]	enhanced antimicrobial action
C/C=C/c1ccccc1O [(E)-2-(prop-1-enyl)phenol]	enhanced antimicrobial action
